Test results as given in patent US20070293485A1, “DRUG ADMINISTRATION METHODS” (priority 2006, published 2007).
Entries after “also recorded” stand apart in the source; their conditions may differ.

Legend:
[1] = tested on: patients with advanced solid tumors or lymphomas; assay: Phase I study, one or two hour intravenous infusion daily for five consecutive days on a three week cycle: adverse events, DLT, MTD; format: in vivo
Protocol: Dosing is by one or two hour intravenous infusion daily for five consecutive days repeated on a three week cycle. […] Response by RECIST is determined after every 2 cycles.

[2] = tested on: advanced solid tumors or lymphomas; assay: Phase I study, one or two hour infusion: response by RECIST, disease stabilization; format: in vivo, human
Protocol: (§1) Eligible patients with advanced solid tumors or lymphomas whose tumors had progressed on, or for whom there are no standard therapies, receive Compound A in successive dose cohorts at: 10, 20, 40, 80 and 160 mg/m^2. Dosing is by one or two hour intravenous infusion daily for five consecutive days repeated on a three week cycle. […] Response by RECIST is determined after every 2 cycles.

[3] = Phase I study, one or two hour infusion: plasma pharmacokinetics; format: in vivo, human
Protocol: The objectives of the study described hereafter are to determine the maximum tolerated dose (MTD) and dose limiting toxicities (DLTs), to establish the pharmacokinetics (PKs), and to determine the recommended dose for further clinical development of Compound A.
as §1

[4] = tested on: patients with advanced solid tumors; assay: Phase I study, daily intravenous infusion (one to six hours) on first five days of a three week cycle: adverse events, DLT, MTD; format: in vivo
Text: Compound A is designed to inhibit over-expressed ribosomal RNA synthesis in cancer cells by disrupting an essential protein-rDNA quadruplex complex thereby inducing selective apoptosis. A Phase I clinical trial for Compound A has been undertaken to determine the dose limiting toxicities (DLTs), maximum tolerated dose (MTD) and pharmacokinetics (PK) of this agent with administration by infusion for about six hours per day.
(§2) Eligible patients with advanced solid tumors received Compound A in successive dose cohorts at: 10, 20, 40, 80, 160, 240, 360 and 480 mg/m^2. Drug is administered by daily intravenous infusion on the first five consecutive days of a three week cycle and the infusion duration has varied from one hour to six hours. Response by RECIST is determined after every 2 cycles.

advanced solid tumors = assay: Phase I study, infusion up to six hours: response by RECIST, disease stabilization; format: in vivo, human
Protocol: as §2

[5] = Phase I study: pharmacokinetics in plasma, whole blood and urine of patients; format: in vivo, human
Text: Analysis has determined that Compound A whole blood concentration is nearly ten times that of plasma concentration. The reversible binding and subsequent slow release of Compound A from blood cells provides a “reservoir” effect to extend the Compound A plasma terminal half life. Further details of these observations are described in an Example that follows. This pharmacokinetic property allows consideration of a less frequent dosing schedule, and a phase I study of weekly intravenous Compound A administration is being implemented.
Pharmacokinetic analyses of plasma samples collected on Day 1 and Day 5 of dosing for every patient were performed in cohort batches during the conduct of the phase I study of Compound A in refractory solid tumors and lymphomas (Protocol C3-05-001). […] Saturation of elimination was an unlikely cause of the extended half life because there was no apparent accumulation of drug in plasma.
The pharmacokinetic sampling procedure in the phase I clinical trial was amended to allow for whole blood and plasma to be collected from study patients. When these samples were analyzed, the binding of Compound A to blood cells was again evident.

human blood cells [6] = assay: Human whole blood spiked with Compound A in vitro: binding to blood cells; format: in vitro ADME
Protocol: (§3) To test if this binding also occurs with human blood cells, an in vitro experiment was conducted with human whole blood spiked with Compound A concentrations of 1, 5, 10, and 50 μM. […] Results of the analysis of whole blood and plasma are illustrated in FIG. 7. The permanence of the binding was studied by attempting to “wash off” bound drug with fresh plasma. […] This reversible binding to blood cells is the reason for the observed extended plasma terminal half life. The ability of fresh plasma to wash off Compound A from blood cells after one, two and four washes is illustrated in FIGS. 8, 9, and 10, respectively.

human blood cells [7] = assay: Wash off of bound drug from blood cells with fresh plasma; format: in vitro ADME; conditions: one, two and four washes
Protocol: as §3

xenograft tumor = assay: Xenograft tumor growth models (preclinical); format: in vivo
malignant cells = assay: Apoptosis in malignant cells in vitro; format: cell-based
Drug resistance in vitro = format: cell-based
[8] = tested on: protein-rDNA quadruplex interaction; assay: Inhibition of rRNA biogenesis in cancer cells; format: cell-based

CN1CCCC1CCNC(=O)c1cn2c3c(c(N4CCC(c5cnccn5)C4)c(F)cc3c1=O)Oc1cc3ccccc3cc1-2 (stereo not drawn) [Compound A]
tolerability of doses ([1]; 10, 20, 40, 80 and 160 mg/m^2, one or two hour iv infusion daily x5, three week cycle, 21 patients): well tolerated | drug-related serious adverse events ([1]; 10-160 mg/m^2): No drug-related serious adverse events | grade 3 adverse events deemed related to Compound A ([1]; 10-160 mg/m^2, 21 patients): none | grade 3 adverse events reported during the study ([1]; 10-160 mg/m^2, 21 patients): nine | severity of adverse events deemed at least possibly related to drug ([1]; all studied dose levels 10-160 mg/m^2): grade 1 or 2 | maximum tolerated dose (MTD) ([1]; highest dose 160 mg/m^2, one or two hour infusion): not yet been defined | cough during infusion ([1]; one-hour infusion, 160 mg/m^2, resolved spontaneously upon completion of infusion): transient grade 1 cough | cough after extending the infusion duration ([1]; two hour infusion, 160 mg/m^2): the cough resolved | dose limiting toxicities ([1]; up to 160 mg/m^2): no observations to date of dose limiting toxicities | longest period of stable disease to date ([2]; 10-160 mg/m^2): 24 weeks | patients with disease stabilization of longer than / at least four months ([2]; 10-160 mg/m^2, 21 patients): three | patients with stable disease (SD) at evaluation following two cycles ([2]; 10-160 mg/m^2, 21 patients): Six | objective tumor responses ([2]; 10-160 mg/m^2, 21 patients, RECIST after every 2 cycles): No objective tumor responses | median duration of disease stabilization ([2]; six patients with stable disease): 14 weeks | linearity of PK parameters (AUC) with dose level ([3]; day 1 of dosing, dose cohorts 10-160 mg/m^2): linearity; also recorded: linear pharmacokinetic behavior | half-life ([3]; human, plasma, intravenous, following the first dose (day 1), across all dose levels 10-160 mg/m^2, read-out: plasma terminal half life (converted)): ~10 h | maximum plasma concentration (Cmax), effect of extending infusion ([3]; infusion extended to 2 hours at 160 mg/m^2): decreased | MTD ([4]; daily iv infusion x5 days, three week cycle, infusion up to six hours): 360 mg/m^2 | tolerability ([4]; in vivo): well tolerated | duration of stable disease (advanced solid tumors; 10 mg/m^2, one patient with prostate cancer): six | duration of stable disease (advanced solid tumors; 160 mg/m^2 (internal dose escalation from 80 mg/m2), one patient with anorectal cancer): twelve | duration of stable disease (advanced solid tumors; 160 mg/m^2, one patient with liposarcoma): six | cycles completed, patient remains on-study (advanced solid tumors; 240 mg/m^2 (internal dose escalation from 40 mg/m^2), one patient with neuroendocrine islet cell cancer of the pancreas): 26 cycles | patients with stable disease for longer than four months (advanced solid tumors; 42 patients, 10-480 mg/m^2): Four | patients with disease stabilization for longer than one year (advanced solid tumors; 42 patients, continuing on study): one | urinary clearance rate ([5]; calculated from a 12-hour quantitative urine collection): 10 % of the glomerular filtration rate | plasma terminal half life, trend ([5]; patients, Day 5 vs Day 1 and dose escalation): increase with repeated dosing and with each dose level escalation | saturability of blood cell binding ([5]; patients, comparing Day 1 and Day 5): did not appear to be saturable | whole blood concentration relative to plasma concentration ([5]; patients, on Day 1 and on Day 5): approximately ten | accumulation in plasma concentration ([5]; patients, repeated dosing): without significant accumulation | binding to blood cells ([5]; patients, whole blood and plasma specimens): bind reversibly to blood cells | route of elimination ([5]; urine): eliminated unchanged in urine | saturability of binding to human blood cells (human blood cells [6]; even at 50 μM): not saturable | binding to human blood cells (human blood cells [6]; human whole blood spiked with 1, 5, 10, and 50 μM): concentration dependent binding | permanence of binding to blood cells (human blood cells [7]): easily reversible | suppression of xenograft tumor growth (xenograft tumor): potency in suppressing xenograft tumor growth with a broad therapeutic window | induction of apoptosis (malignant cells): rapidly induces selective apoptosis | drug resistance (Drug resistance in vitro): no drug resistance has been observed | effect on rRNA biogenesis [8]: directly inhibits aberrant rRNA biogenesis
